This test has as its system Eschericia coli (E. coli) strain ATCC25922. The test can be described thus: Standard microdilution assay, MIC against E. coli ATCC25922. It is filed as cell-based. As to conditions: Escherichia coli; E. coli strain ATCC25922, standard microdilution assay; cutoff 16 micrograms/mL; read-out: MIC E. Coli. As to the method:
The in vitro activity of the compounds of the present invention can be determined. Antimicrobial testing is typically performed to determine the minimum inhibitory concentration (MIC). Minimum inhibitory concentrations (MICs) are determined by the microdilution method in a final volume of 100 μl according to protocols outlined by The Clinical and Laboratory Standards Institute (CLSI). Performance standards for reference strains are assessed within the same experimental design to maintain quality control. See, for example, Clinical Laboratory Standards Institute: Methods for dilution antimicrobial susceptibility tests for bacteria that grow aerobically M7-A8. Approved Standard-Eighth Edition. Wayne, Pa.: CLSI; December 2008; and Clinical Laboratory Standards Institute: Performance Standards for Antimicrobial Susceptibility Testing M100-S20; Approved Standard-Twentieth Edition. Wayne, Pa.: CLSI; June 2010.
The compounds of the present invention were tested for antimicrobial activity. The Compounds 1-582 were run against Eschericia coli (E. coli) strain ATCC25922 and Compounds 320-582 were run against Staphylococcus aureus (S. aureus) 11540 strain using a standard microdilution assay to determine minimum inhibitory concentrations (MICs). […] It will be recognized by one skilled in the art that the compounds can be assessed against other bacterial organisms and that the presentation of data for activity against Eschericia coli and Staphylococcus aureus are illustrative and in no way is intended to limit the scope of the present invention. The compounds of the present invention can be assayed against a range of other microorganisms depending upon the performance activity desired to be gathered. Furthermore, the “+” and “−” representation and the selection of a cutoff value of 16 micrograms/mL is also illustrative and in no way is intended to limit the scope of the present invention.
For orientation: In broth dilution the organism is exposed to a series of concentrations in liquid medium.
By MIC is commonly meant the lowest concentration that inhibits growth of the organism. Regarding `C=CC[C@@H](NCCCNC(=N)N)c1ccc(-n2cc3cc(-c4cc(CCC[C@H](C)N)cc(SC(F)(F)F)c4)[nH]c3nc2=O)cc1` [Compound 1], the MIC was below 16 µg/mL.

Turning to `C[C@H](N)CCCc1cc(Cl)c(F)c(-c2cc3cn(-c4ccc([C@@H](CCN)NCCCNC(=N)N)cc4)c(=O)nc3[nH]2)c1` [Compound 2], the MIC is below 16 µg/mL. The value for `C=CC[C@@H](NCCCNC(=N)N)c1ccc(-n2cc3cc(-c4cc(CCC[C@H](C)N)cc(Cl)c4F)[nH]c3nc2=O)cc1` [Compound 3] was below 16 µg/mL. Turning to `C=CC[C@@H](NCCCNC(=N)N)c1ccc(-n2cc3cc(-c4cc(CCC[C@H](C)N)cc(C(F)(F)F)c4)[nH]c3nc2=O)cc1` [Compound 4], the minimal inhibitory concentration (MIC) is below 16 µg/mL.

As to `COc1ccc([C@H](NCCCNC(=N)N)c2ccc(-n3cc4cc(-c5cc(CCC[C@H](C)N)cc(Cl)c5F)[nH]c4nc3=O)cc2)cc1` [Compound 5], the MIC was below 16 µg/mL. For `C[C@H](N)CCCc1cc(-c2cc3cn(-c4ccc([C@@H](CCN)NCCCNC(=N)N)cc4)c(=O)nc3[nH]2)cc(C(F)(F)F)c1` [Compound 6] the value was below 16 µg/mL; for `C[C@H](N)CCCc1cc(SC(F)(F)F)cc(-c2cc3cn(-c4ccc([C@@H](CCN)NCCCNC(=N)N)cc4)c(=O)nc3[nH]2)c1` [Compound 7], below 16 µg/mL; for `COc1ccc([C@H](c2ccc(SC)cc2)c2ccc(-n3cc4cc(-c5cc(CCC[C@H](C)N)cc(SC(F)(F)F)c5)[nH]c4nc3=O)cc2)cc1` [Compound 8], above 16 µg/mL.

As for `COc1ccc([C@@H](c2ccc(SC)cc2)c2ccc(-n3cc4cc(-c5cc(CCC[C@H](C)N)cc(SC(F)(F)F)c5)[nH]c4nc3=O)cc2)cc1` [Compound 9], the MIC is above 16 µg/mL. For `C[C@H](N)CCCc1cc(-c2cc3cn(-c4ccc([C@H](C)NCCCNC(=N)N)cc4)c(=O)nc3[nH]2)c(F)cc1Cl` [Compound 10] the value was below 16 µg/mL; for `C=CC[C@H](NCCCNC(=N)N)c1ccc(-n2cc3cc(-c4cc(CCC[C@H](C)N)cc(SC(F)(F)F)c4)[nH]c3nc2=O)cc1` [Compound 11], below 16 µg/mL.

Regarding `C[C@H](N)CCCc1cc(Cl)c(F)c(-c2cc3cn(-c4ccc([C@@H](NCCCNC(=N)N)C(=O)N5CCNCC5)cc4)c(=O)nc3[nH]2)c1` [Compound 12], the MIC was below 16 µg/mL.

On to `C[C@H](N)CCCc1cc(-c2cc3cn(-c4ccc([C@@H](NCCCNC(=N)N)C(=O)N5CCNCC5)cc4)c(=O)nc3[nH]2)cc(C(F)(F)F)c1` [Compound 13], for which the MIC is below 16 µg/mL. In the case of `C[C@H](N)CCCc1cc(SC(F)(F)F)cc(-c2cc3cn(-c4ccc([C@@H](NCCCNC(=N)N)C(=O)N5CCNCC5)cc4)c(=O)nc3[nH]2)c1` [Compound 14], the MIC is below 16 µg/mL.

As to `C[C@H](N)CCCc1cc(Cl)c(F)c(-c2cc3cn(-c4ccc([C@H](CCO)NCCCNC(=N)N)cc4)c(=O)nc3[nH]2)c1` [Compound 15], the MIC was below 16 µg/mL. With `C[C@H](N)CCCc1cc(-c2cc3cn(-c4ccc([C@H](CCO)NCCCNC(=N)N)cc4)c(=O)nc3[nH]2)cc(C(F)(F)F)c1` [Compound 16], the MIC was below 16 µg/mL. For `COc1ccc([C@H](NCCCNC(=N)N)c2ccc(-n3cc4cc(-c5cc(CCC[C@H](C)N)cc(C(F)(F)F)c5)[nH]c4nc3=O)cc2)cc1` [Compound 17] the value was below 16 µg/mL; for `C[C@H](N)CCCc1cc(-c2cc3cn(-c4ccc([C@H](CCN)NCCCNC(=N)N)cc4)c(=O)nc3[nH]2)cc(C(F)(F)F)c1` [Compound 18], below 16 µg/mL. `C[C@H](N)CCCc1cc(Cl)c(F)c(-c2cc3cn(-c4ccc([C@H](CCN)NCCCNC(=N)N)cc4)c(=O)nc3[nH]2)c1` [Compound 19]: the MIC was below 16 µg/mL. Take `C[C@H](NCCCNC(=N)N)c1ccc(-n2cc3cc(-c4cc([C@H](O)CC[C@@H](C)N)cc(C(F)(F)F)c4)[nH]c3nc2=O)cc1` [Compound 20]: the MIC was below 16 µg/mL. The value for `C[C@H](N)CC[C@@H](O)c1cc(-c2cc3cn(-c4ccc([C@H](C)NCCCNC(=N)N)cc4)c(=O)nc3[nH]2)cc(C(F)(F)F)c1` [Compound 21] was below 16 µg/mL.

In the case of `CC(N)CC[C@@H](O)c1cc(-c2cc3cn(-c4ccc([C@H](C)NCCCNC(=N)N)cc4)c(=O)nc3[nH]2)cc(C(F)(F)F)c1` (some centres unmarked) [Compound 22], the MIC was below 16 µg/mL.

Regarding `C[C@H](N)CCCc1cc(SC(F)(F)F)cc(-c2cc3cn(-c4ccc([C@H](CCN)NCCCNC(=N)N)cc4)c(=O)nc3[nH]2)c1` [Compound 23], the MIC is below 16 µg/mL.

Turning to `C[C@H](N)CCCc1cc(SC(F)(F)F)cc(-c2cc3cn(-c4ccc([C@H](CCO)NCCCNC(=N)N)cc4)c(=O)nc3[nH]2)c1` [Compound 24], the minimal inhibitory concentration (MIC) is below 16 µg/mL.

For `C[C@H](N)CCCc1cc(SC(F)(F)F)cc(-c2cc3cn(-c4ccc([C@@H](NCCCNC(=N)N)c5ccc(O)cc5)cc4)c(=O)nc3[nH]2)c1` [Compound 25], the MIC is below 16 µg/mL. As to `C[C@H](N)CCCc1cc(Cl)c(F)c(-c2cc3cn(-c4ccc([C@@H](NCCCNC(=N)N)c5ccc(O)cc5)cc4)c(=O)nc3[nH]2)c1` [Compound 26], the MIC was below 16 µg/mL. As to `C[C@H](N)CCCc1cc(Cl)cc(-c2cc3cn(-c4ccc([C@H](C)NCCCNC(=N)N)cc4)c(=O)nc3[nH]2)c1` [Compound 27], the MIC is below 16 µg/mL. The value for `COCC[C@H](NCCCNC(=N)N)c1ccc(-n2cc3cc(-c4cc(CCC[C@H](C)N)cc(C(F)(F)F)c4)[nH]c3nc2=O)cc1` [Compound 28] was below 16 µg/mL; that for `COCC[C@H](NCCCNC(=N)N)c1ccc(-n2cc3cc(-c4cc(CCC[C@H](C)N)cc(Cl)c4F)[nH]c3nc2=O)cc1` [Compound 29] was below 16 µg/mL; that for `COCC[C@H](NCCCNC(=N)N)c1ccc(-n2cc3cc(-c4cc(CCC[C@H](C)N)cc(SC(F)(F)F)c4)[nH]c3nc2=O)cc1` [Compound 30] was below 16 µg/mL. `C[C@H](NCCCNC(=N)N)c1ccc(-n2cc3cc(-c4cc(CCC[C@@H](N)CO)cc(SC(F)(F)F)c4)[nH]c3nc2=O)cc1` [Compound 31]: the MIC is below 16 µg/mL. Take `C[C@H](N)CCCc1cc(Cl)c(F)c(-c2cc3cn(-c4ccc([C@@H](NCCCNC(=N)N)C(N)=O)cc4)c(=O)nc3[nH]2)c1` [Compound 32]: the minimum inhibitory concentration (MIC) is below 16 µg/mL. Regarding `Cc1cc(F)c(-c2cc3cn(-c4ccc([C@H](C)NCCCNC(=N)N)cc4)c(=O)nc3[nH]2)cc1CCC[C@H](C)N` [Compound 33], the MIC is below 16 µg/mL. The value for `C[C@H](N)CC[C@@H](O)c1cc(OC(F)(F)F)cc(-c2cc3cn(-c4ccc([C@H](C)NCCCNC(=N)N)cc4)c(=O)nc3[nH]2)c1` [Compound 34] was below 16 µg/mL. Take `N=C(N)NCCCNCc1ccc(-n2cc3cc(-c4cc(OC(F)(F)F)cc([C@H]5C[C@H](N)CCO5)c4)[nH]c3nc2=O)cc1` [Compound 35]: the MIC was below 16 µg/mL. For the compound `C[C@H](NCCCNC(=N)N)c1ccc(-n2cc3cc(-c4cc(OC(F)(F)F)cc([C@H]5C[C@H](N)CCO5)c4)[nH]c3nc2=O)cc1` [Compound 36], the minimal inhibitory concentration (MIC) was below 16 µg/mL. The value for `N=C(N)NCCCNCc1ccc(-n2cc3cc(-c4cc(C[C@H]5C[C@H](N)CCO5)cc(OC(F)(F)F)c4)[nH]c3nc2=O)cc1` [Compound 37] was below 16 µg/mL; that for `C[C@H](NCCCNC(=N)N)c1ccc(-n2cc3cc(-c4cc(C[C@H]5C[C@H](N)CCO5)cc(OC(F)(F)F)c4)[nH]c3nc2=O)cc1` [Compound 38] was below 16 µg/mL; that for `C[C@H](N)CCCc1cc(Cl)c(F)c(-c2cc3cn(-c4ccc([C@@H](NCCCNC(=N)N)c5ccc(S(C)(=O)=O)cc5)cc4)c(=O)nc3[nH]2)c1` [Compound 39] was below 16 µg/mL.

For the compound `C[C@H](N)CCCc1cc(SC(F)(F)F)cc(-c2cc3cn(-c4ccc([C@@H](NCCCNC(=N)N)c5ccc(S(C)(=O)=O)cc5)cc4)c(=O)nc3[nH]2)c1` [Compound 40], the MIC was below 16 µg/mL. For `COc1ccc(Cn2cc(C[C@H](NCCCNC(=N)N)c3ccc(-n4cc5cc(-c6cc(CCC[C@H](C)N)cc(Cl)c6F)[nH]c5nc4=O)cc3)nn2)cc1` [Compound 41] the value was below 16 µg/mL; for `COc1ccc(Cn2cc(C[C@H](NCCCNC(=N)N)c3ccc(-n4cc5cc(-c6cc(CCC[C@H](C)N)cc(C(F)(F)F)c6)[nH]c5nc4=O)cc3)nn2)cc1` [Compound 42], below 16 µg/mL; for `COc1ccc(Cn2cc(C[C@H](NCCCNC(=N)N)c3ccc(-n4cc5cc(-c6cc(CCC[C@H](C)N)cc(SC(F)(F)F)c6)[nH]c5nc4=O)cc3)nn2)cc1` [Compound 43], below 16 µg/mL. For `C[C@H](N)CCCc1cc(Cl)c(F)c(-c2cc3cn(-c4ccc([C@@H](CO)NCCCNC(=N)N)cc4)c(=O)nc3[nH]2)c1` [Compound 44] the value was below 16 µg/mL; for `C[C@H](N)CCCc1cc(SC(F)(F)F)cc(-c2cc3cn(-c4ccc([C@@H](CO)NCCCNC(=N)N)cc4)c(=O)nc3[nH]2)c1` [Compound 45], below 16 µg/mL.

For `C[C@H](N)CCCc1cc(Cl)c(F)c(-c2cc3cn(-c4ccc([C@H](Cc5c[nH]nn5)NCCCNC(=N)N)cc4)c(=O)nc3[nH]2)c1` [Compound 46], the MIC was below 16 µg/mL. Turning to `C[C@H](N)CCCc1cc(-c2cc3cn(-c4ccc([C@H](Cc5c[nH]nn5)NCCCNC(=N)N)cc4)c(=O)nc3[nH]2)cc(C(F)(F)F)c1` [Compound 47], the MIC was below 16 µg/mL.

The values are drawn from patent US10815238B2, “Antimicrobial compounds and methods of making and using the same” (BIOVERSYS AG, priority 2013, dated 2020).
